Laboratory results reported in patent US11020358B2, “Method for the anti-senescence of and/or rejuvenating stem cells” (GWO XI STEM CELL APPLIED TECHNOLOGY CO., LTD., priority 2014, dated 2021).

Columns and labels:
hBMMSCs = test: SA-β-gal activity assay in hBMMSCs; type: cell-based, human
Method: Three portions of equal volume of the above culture medium containing the sub-cultured hBMMSCs were provided. The first and second portions were handled by adding thereinto H2O2 at a final concentration of 100 μM, reacting for 2 hours to induce senescence of the hBMMSCs, replacing the culture medium with a fresh culture medium, adding thereinto TC at final concentrations of 0 and 6 μM respectively, and reacting for 6 hours to obtain “H2O2 group (i.e., treated with H2O2 for 2 hours, but not treated with TC)” and “H2O2+TC6 group (i.e., treated with H2O2 for 2 hours and then treated with 6 μM of TC for 6 hours) hBMMSCs. The third portion without any treatment was referred to as “untreated group” hBMMSCs.
(§1) The ADSCs in each sample of the group obtained from Example 1 (1) were washed with PBS twice, fixed with 3% formaldehyde and washed with PBS once. […]
The staining solution was removed. […] The cells were observed and photographed under a microscope with 10-fold magnification, and the percentage of SA-β-gal activity-positive cells was calculated. […]

telomerase = test: Telomerase activity assay (TRAP) in ADSCs; type: cell-based, human
Method: It has been know that the activity of telomerase plays a key role in controlling cell senescence. The activity of telomerase in each of the “untreated group,” “H2O2 group” and “TC6 group” ADSCs from Example 1 (1) was analyzed by Telomeric Repeat Amplification Protocol (TRAP) as follows. The 3′-end primer of telomere (i.e., Telo TAGGG) was extended by PCR under the catalysis of telomerase to amplify the TTAGGG repeat sequence. Then, signals of the product were detected by enzyme-linked immunosorbent assay (ELISA). The results are shown in FIG. 7, wherein the activity of telomerase in HEK293 cells (without any treatment) was served as a positive control group.

SIRT1 gene [1] = test: Quantitative RT-PCR of SIRT1 gene in WJSCs; type: cell-based
Method: Three portions of equal volume of the above culture medium containing the sub-cultured WJSCs were provided. The first and second portions were handled by adding thereinto H2O2 at a final concentration of 100 μM, reacting for 2 hours to induce senescence of the WJSCs, replacing the culture medium with a fresh culture medium, adding thereinto TC at final concentrations of 0 and 6 μM, respectively, and reacting for 6 hours to obtain “H2O2 group (i.e., treated with H2O2 for 2 hours, but not treated with TC)” and “H2O2+TC6 group (i.e., treated with H2O2 for 2 hours and then treated with 6 μM of TC for 6 hours) WJSCs. The third portion without any treatment was referred to as “untreated group” WJSCs. […]
(§2) Each of the cDNA of ADSCs of different groups from Experiment (3-1) was handled as follows. […] The mixture was then placed in a real-time quantitative PCR machine (ABI prism 7700 sequence detection system) to perform a reaction for quantifying the gene expression levels. […]
(§3) The steps as shown in Experiment (3-2) were repeated, but the cDNA was substituted with the cDNA of the BMMSCs or WJSCs from Experiment (3-1) to conduct quantitative RT-PCR.

ADSCs = test: SA-β-gal activity assay in ADSCs; type: cell-based, human
Method: Four portions of equal volume of the above culture medium containing the sub-cultured ADSCs were separately handled by adding thereinto H2O2 (purchased from Sigma-Aldrich) at a final concentration of 100 μM and reacting for 2 hours to induce senescence of the ADSCs, replacing the culture medium with a fresh culture medium, adding thereinto TC (trans-cinnamaldehyde, purchased from Sigma-Aldrich) at a final concentration of 0, 2, 4 or 6 μM and reacting for 6 hours, so as to obtain “H2O2 group (i.e., treated with H2O2 for 2 hours, but not treated with TC),” “H2O2+TC2 group (i.e., treated with H2O2 for 2 hours and then treated with 2 μM of TC for 6 hours),” “H2O2+TC4 group (i.e., treated with H2O2 for 2 hours and then treated with 4 μM of TC for 6 hours),” and “H2O2+TC6 group (i.e., treated with H2O2 for 2 hours and then treated with 6 μM of TC for 6 hours)” ADSCs.
Four portions of equal volume of the above culture medium containing the sub-cultured ADSCs were handled by adding thereinto TC at final concentrations of 0, 2, 4 and 6 μM respectively, and reacting for 6 hours to obtain “untreated group (i.e., without any treatment),” “TC2 group (i.e., treated only with 2 μM of TC),” “TC4 group (i.e., treated only with 4 μM of TC)” and “TC6 group (i.e., treated only with 6 μM of TC)” ADSCs.
It has been known that senescent cells in acidic environment (e.g., pH 6.0) show the activity of SA-β-gal. Therefore, the senescence level of cells can be reflected by measuring the expression level of SA-β-gal in the cells.
as §1
The staining solution was removed. […] The cells were observed and photographed under a microscope with 10-fold magnification, and the percentage of SA-β-gal activity-positive cells was calculated.

SIRT1 gene [2] = test: Quantitative RT-PCR of SIRT1 gene in hBMMSCs; type: cell-based, human
Method: Three portions of equal volume of the above culture medium containing the sub-cultured hBMMSCs were provided. The first and second portions were handled by adding thereinto H2O2 at a final concentration of 100 μM, reacting for 2 hours to induce senescence of the hBMMSCs, replacing the culture medium with a fresh culture medium, adding thereinto TC at final concentrations of 0 and 6 μM respectively, and reacting for 6 hours to obtain “H2O2 group (i.e., treated with H2O2 for 2 hours, but not treated with TC)” and “H2O2+TC6 group (i.e., treated with H2O2 for 2 hours and then treated with 6 μM of TC for 6 hours) hBMMSCs. The third portion without any treatment was referred to as “untreated group” hBMMSCs. […]
as §2, §3

[3] = H2O2+TC6 group compared to H2O2 group
[4] = H2O2 group compared to untreated group

| Structure (SMILES) | number of the SA-β-gal activity-positive hBMMSCs (hBMMSCs; H2O2+TC6 group (6 μM TC 6 h after H2O2) compared to H2O2 group) | activity of telomerase (telomerase; ADSCs, 6 μM TC (“TC6 group”), compared to H2O2 group) | expression level of SIRT1 gene in WJSCs (SIRT1 gene [1]; [3]) | number of the SA-β-gal activity-positive cells (ADSCs; H2O2-senescent ADSCs, 2, 4 and 6 μM TC 6 h, compared to H2O2 group) | number of the SA-β-gal activity-positive cells (ADSCs; non-senescent ADSCs, 2, 4 and 6 μM TC 6 h, compared to untreated group) | expression level of SIRT1 gene in hBMMSCs (SIRT1 gene [2]; [3]) | number of the SA-β-gal activity-positive hBMMSCs (hBMMSCs; H2O2 group (100 μM 2 h) compared to untreated group) | activity of telomerase (telomerase; H2O2 group ADSCs compared to untreated group) | expression level of SIRT1 gene in WJSCs (SIRT1 gene [1]; [4]) | number of the SA-β-gal activity-positive cells (ADSCs; ADSCs, 100 μM H2O2 2 h, compared to untreated group) | expression level of SIRT1 gene in hBMMSCs (SIRT1 gene [2]; [4]) |
| --- | --- | --- | --- | --- | --- | --- | --- | --- | --- | --- | --- |
| O=C/C=C/c1ccccc1 [TC, trans-cinnamaldehyde] | significantly reduced | significantly increased | significantly increased | significantly reduced | significantly reduced along with the increment in the concentration of TC | significantly increased |  |  |  |  |  |
| OO [H2O2, reference compound] |  |  |  |  |  |  | significantly increased | significantly decreased | significantly reduced | significantly increased | significantly reduced |
